Measured values from ChEMBL document CHEMBL1201862, “PubChem BioAssay data set” (2004).
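Dose response: 5 concentrations. Exposure: 48 h. Format: 96-well plates. Endpoint: linear interpolation; highest concentration if not reached. The concentration for 50% growth inhibition is given as GI50.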 Calls of active or inactive are those of the source. Rule as the data show it: active = GI50 up to about 1.1 µM and inactive = higher.

What was measured:
Test in all cases: inhibition of tumour cell growth, NCI panel, 48 h
HCC 2998 = tested on: HCC 2998
HCT-15 = tested on: HCT-15
NCI-H460 = tested on: NCI-H460
NCI-H226 = tested on: NCI-H226
RPMI-8226 = tested on: RPMI-8226
NCI-H23 = tested on: NCI-H23
Malme-3M = tested on: Malme-3M
SF-268 = tested on: SF-268
OVCAR-4 = tested on: OVCAR-4
HCT-116 = tested on: HCT-116
ACHN = tested on: ACHN
A498 = tested on: A498
DU-145 = tested on: DU-145
BT-549 = tested on: BT-549
IGROV-1 = tested on: IGROV-1
SNB-19 = tested on: SNB-19
CAKI-1 = tested on: CAKI-1
SF-539 = tested on: SF-539
M14 = tested on: M14
HOP-92 = tested on: HOP-92

SMILES	GI50 (HCC 2998)	GI50 (HCT-15)	GI50 (NCI-H460)	GI50 (NCI-H226)	GI50 (RPMI-8226)	GI50 (NCI-H23)	GI50 (Malme-3M)	GI50 (SF-268)	GI50 (OVCAR-4)	GI50 (HCT-116)	GI50 (ACHN)	GI50 (A498)	GI50 (DU-145)	GI50 (BT-549)	GI50 (IGROV-1)	GI50 (SNB-19)	GI50 (CAKI-1)	GI50 (SF-539)	GI50 (M14)	GI50 (HOP-92)
CC(=O)Nn1cnc(C(=N)C#N)c1N	> 100 µM (inactive)	> 100 µM	> 100 µM (inactive)	> 100 µM (inactive)	> 100 µM (inactive)	> 100 µM (inactive)	> 100 µM (inactive)	> 100 µM (inactive)	> 100 µM (inactive)	> 100 µM (inactive)	> 100 µM (inactive)	> 100 µM (inactive)	> 100 µM (inactive)	> 100 µM (inactive)	> 100 µM (inactive)	> 100 µM (inactive)	> 100 µM (inactive)	> 100 µM (inactive)	> 100 µM (inactive)	–
CSc1[nH]nc(N)c1C(=O)Nc1ccc(Cl)cc1	99.8 µM (inactive)	46.2 µM	79.4 µM (inactive)	25.6 µM (inactive)	37.7 µM (inactive)	36.6 µM (inactive)	63.7 µM (inactive)	79.6 µM (inactive)	50.5 µM (inactive)	23.6 µM (inactive)	–	73.3 µM (inactive)	68.5 µM (inactive)	89.7 µM (inactive)	98.9 µM (inactive)	66.5 µM (inactive)	46.2 µM (inactive)	66.2 µM (inactive)	68.9 µM (inactive)	–
O=C1C(Cl)C(c2cccc(Br)c2)N1c1c(O)c(Cl)cc(Br)c1Cl (centres undefined)	11.1 µM (inactive)	2.32 µM	14.1 µM (inactive)	18.2 µM (inactive)	14.4 µM (inactive)	16.6 µM (inactive)	19.1 µM (inactive)	14.8 µM (inactive)	12.3 µM (inactive)	14.5 µM (inactive)	15.2 µM (inactive)	–	14.9 µM (inactive)	25.8 µM (inactive)	1.25 µM (inactive)	1.38 µM (inactive)	19.3 µM (inactive)	15.6 µM (inactive)	13.9 µM (inactive)	6.93 µM (inactive)
O=C(Nc1ccc(F)cc1)c1cc2ccc(O)cc2o/c1=N\c1ccccc1F	33.7 µM (inactive)	18.9 µM	18.8 µM (inactive)	–	8.04 µM (inactive)	1.62 µM (inactive)	50 µM (inactive)	29.1 µM (inactive)	21.3 µM (inactive)	24.8 µM (inactive)	20 µM (inactive)	37.6 µM (inactive)	34.4 µM (inactive)	14.8 µM (inactive)	10.1 µM (inactive)	–	33.5 µM (inactive)	42.7 µM (inactive)	–	–
O=S(=O)(Cc1cnc(O)nc1O)Cc1cnc(O)nc1O	–	> 100 µM	> 100 µM (inactive)	> 100 µM (inactive)	> 100 µM (inactive)	> 100 µM (inactive)	> 100 µM (inactive)	> 100 µM (inactive)	> 100 µM (inactive)	> 100 µM (inactive)	> 100 µM (inactive)	> 100 µM (inactive)	> 100 µM (inactive)	> 100 µM (inactive)	> 100 µM (inactive)	> 100 µM (inactive)	> 100 µM (inactive)	> 100 µM (inactive)	> 100 µM (inactive)	> 100 µM (inactive)
O=C(CC(Cl)(Cl)C(Cl)(Cl)Cl)c1ccccc1	–	2.17 µM	12 µM (inactive)	3.63 µM (inactive)	3.45 µM (inactive)	3.88 µM (inactive)	2.71 µM (inactive)	11.7 µM (inactive)	2.22 µM (inactive)	2.1 µM (inactive)	2.27 µM (inactive)	18.4 µM (inactive)	3.01 µM (inactive)	10.7 µM (inactive)	4.84 µM (inactive)	17.4 µM (inactive)	2.3 µM (inactive)	16.2 µM (inactive)	2.62 µM (inactive)	19.9 µM (inactive)
CCOc1cc(NC(C)=O)ccc1C(=O)NN1C(=O)/C(=C/c2ccc(Cl)cc2)N=C1c1ccccc1	–	35.6 µM	–	42.8 µM (inactive)	25.9 µM (inactive)	41.6 µM (inactive)	–	–	22.3 µM (inactive)	46.1 µM (inactive)	51.1 µM (inactive)	24.9 µM (inactive)	68.5 µM (inactive)	47.4 µM (inactive)	18.1 µM (inactive)	> 100 µM (inactive)	43.1 µM (inactive)	90.2 µM (inactive)	48.5 µM (inactive)	33.9 µM (inactive)
Cc1cc2nc3c(C)c4ccccc4c(C)n3c2cc1C	3.33 µM (inactive)	1.97 µM	1.79 µM (inactive)	–	3.21 µM (inactive)	2.67 µM (inactive)	1.98 µM (inactive)	3.85 µM (inactive)	4.35 µM (inactive)	1.01 µM (active)	1.67 µM (inactive)	–	3.3 µM (inactive)	6.07 µM (inactive)	2.05 µM (inactive)	4.02 µM (inactive)	2.94 µM (inactive)	1.56 µM (inactive)	2.61 µM (inactive)	2.09 µM (inactive)
CC(CC(=O)O)C(C(=O)O)C(=O)O (centres undefined)	–	> 100 µM	> 100 µM (inactive)	> 100 µM (inactive)	> 100 µM (inactive)	> 100 µM (inactive)	> 100 µM (inactive)	> 100 µM (inactive)	> 100 µM (inactive)	> 100 µM (inactive)	> 100 µM (inactive)	> 100 µM (inactive)	> 100 µM (inactive)	> 100 µM (inactive)	> 100 µM (inactive)	> 100 µM (inactive)	> 100 µM (inactive)	> 100 µM (inactive)	> 100 µM (inactive)	> 100 µM (inactive)
O=C1c2ccccc2-c2c1c(-c1ccc([N+](=O)[O-])cc1)nc1ccc3ccccc3c21	> 100 µM (inactive)	> 100 µM	> 100 µM (inactive)	> 100 µM (inactive)	> 100 µM (inactive)	> 100 µM (inactive)	> 100 µM (inactive)	> 100 µM (inactive)	> 100 µM (inactive)	> 100 µM (inactive)	> 100 µM (inactive)	> 100 µM (inactive)	> 100 µM (inactive)	> 100 µM (inactive)	–	> 100 µM (inactive)	> 100 µM (inactive)	> 100 µM (inactive)	> 100 µM (inactive)	–
COC(=O)C(C)(Cc1ccc2c(c1)nnn2C(C)=O)NC(C)=O (centres undefined)	> 100 µM (inactive)	> 100 µM	> 100 µM (inactive)	> 100 µM (inactive)	> 100 µM (inactive)	> 100 µM (inactive)	> 100 µM (inactive)	> 100 µM (inactive)	> 100 µM (inactive)	> 100 µM (inactive)	> 100 µM (inactive)	–	> 100 µM (inactive)	> 100 µM (inactive)	> 100 µM (inactive)	> 100 µM (inactive)	> 100 µM (inactive)	–	> 100 µM (inactive)	> 100 µM (inactive)
CC(=O)CC(=O)Nc1ccc2ccccc2c1	–	95.3 µM	> 100 µM (inactive)	> 100 µM (inactive)	45.6 µM (inactive)	86.9 µM (inactive)	> 100 µM (inactive)	> 100 µM (inactive)	29.4 µM (inactive)	> 100 µM (inactive)	> 100 µM (inactive)	> 100 µM (inactive)	> 100 µM (inactive)	> 100 µM (inactive)	> 100 µM (inactive)	> 100 µM (inactive)	84.3 µM (inactive)	53.6 µM (inactive)	> 100 µM (inactive)	> 100 µM (inactive)
O=C1C=CC2(O[C@@H](Cc3ccccc3)[C@H](Cc3ccccc3)O2)C(SC(=O)c2ccccc2)C1 (some centres undefined)	–	0.298 µM	2.59 µM (inactive)	1.52 µM (inactive)	0.292 µM (active)	1.69 µM (inactive)	2.07 µM (inactive)	0.904 µM (active)	1.47 µM (inactive)	0.158 µM (active)	0.929 µM (active)	4.93 µM (inactive)	2.39 µM (inactive)	0.34 µM (active)	1.26 µM (inactive)	1.94 µM (inactive)	1.26 µM (inactive)	1.66 µM (inactive)	1.45 µM (inactive)	1.54 µM (inactive)
C#CCn1c2c(c3ccccc3c1=O)C(=O)c1ccccc1-2	–	22.2 µM	–	16.7 µM (inactive)	13 µM (inactive)	11.4 µM (inactive)	25.5 µM (inactive)	14 µM (inactive)	11.4 µM (inactive)	19.6 µM (inactive)	–	22.7 µM (inactive)	11.7 µM (inactive)	22.1 µM (inactive)	15.7 µM (inactive)	–	12 µM (inactive)	11.6 µM (inactive)	42.8 µM (inactive)	29.9 µM (inactive)
CCOC(=O)c1ccc(C(=O)/C(C#N)=C2\CCCN2C)[nH]1	> 100 µM (inactive)	> 100 µM	> 100 µM (inactive)	> 100 µM (inactive)	> 100 µM (inactive)	> 100 µM (inactive)	> 100 µM (inactive)	> 100 µM (inactive)	> 100 µM (inactive)	> 100 µM (inactive)	> 100 µM (inactive)	> 100 µM (inactive)	> 100 µM (inactive)	> 100 µM (inactive)	> 100 µM (inactive)	> 100 µM (inactive)	> 100 µM (inactive)	–	> 100 µM (inactive)	–
COc1c(Br)cc(/C=C(\C#N)c2ccccn2)cc1Br	> 100 µM (inactive)	84.9 µM	> 100 µM (inactive)	48.4 µM (inactive)	> 100 µM (inactive)	41.7 µM (inactive)	44.7 µM (inactive)	23.2 µM (inactive)	–	30.3 µM (inactive)	> 100 µM (inactive)	< 0.01 µM (active)	37.8 µM (inactive)	22.8 µM (inactive)	51.4 µM (inactive)	> 100 µM (inactive)	> 100 µM (inactive)	33.4 µM (inactive)	> 100 µM (inactive)	–
